Measured values: patent US10112932B2, “Benzoxazepin oxazolidinone compounds and methods of use” (Genentech, Inc., priority 2015, dated 2018)
Read-outs that look alike come from different tables or passages of the source.

What was measured:
[1] = test system: SW48 (parental) PI3Kα wild-type cells, P-PRAS40; test: Inhibition of P-PRAS40 in SW48 isogenic cells, PI3Kα wild-type parental (Example 902); conditions: Homo sapiens, SW48, 24 h, read-out: P-PRAS40 SW48 (parental) EC50
p110α = p110α (Homo sapiens (Human), UniProt P42336, H1047R); test: p110α degradation, Western blot in HCC1954 and HDQ-P1 cells after 24 hour treatment (Example 905); assay type: cell-based; conditions: HCC1954 (PI3Kα mutant H1047R) vs. HDQ-P1 (PI3Kα wild-type)
Experimental: Cell lines were grown under standard tissue culture conditions in RPMI media with 10% fetal bovine serum, 100 U/mL penicillin, and 100 μg/mL streptomycin.

PI3Kα = PI3Kα (Homo sapiens (Human), UniProt P42336); test: Biochemical inhibition of PI3K alpha (ADP-Glo lipid kinase assay, Example 901); conditions: geometric mean of minimum three experiments unless footnoted
Experimental: Reactions are carried out using the following conditions for each PI3K isoform as in Table 5.
All reactions are carried out at room temperature. […] The reaction is started by the addition of 2 μl ATP/MgCl2. The kinase reaction buffer contains 50 mM HEPES, 50 mM NaCl 3 mM MgCl2, 0.01% BSA, 1% DMSO, and enzyme and substrate concentrations as indicated in the above table. The reaction is stopped by the addition of 10 μL ADP-Glo reagent. Plates are read in a Perkin Elmer Envision system using luminescence mode. 10 point dose response curves are generated for each test compound. Ki values for each compound are determined using the Morrison Equation.

[2] = test system: SW48 (E545K) PI3Kα mutant cells, P-PRAS40; test: Inhibition of P-PRAS40 in SW48 isogenic cells, helical domain mutant E545K (Example 902); conditions: Homo sapiens, SW48, 24 h, read-out: P-PRAS40 SW48 (E545K) EC50
[3] = Multiple day oral dosing in dogs (exposure, clinical and anatomic pathology); assay type: in vivo, Beagle dogs; conditions: for concentration at 14 day / Cmax / AUC(0-t): Beagle, plasma; for concentration at 14 day / Cmax / AUC(0-t) / Cmax D14, free / Exposure AUC0-24 hr, D14, free / Exposure multiples (free, AUC) / Exposure multiples (total, AUC) / Exposure multiples to CD69 IC50 (total, Cmin): dog; for concentration at 14 day: oral, read-out: Cmin D14, total; for Cmax / AUC(0-t): po; for Cmax: read-out: Cmax D14, total; for AUC(0-t): read-out: Exposure AUC0-24 hr, D14, total; for Exposure multiples (free, AUC) / Exposure multiples (total, AUC): vs TGI60 from 21-day HCC1954 TGI study; for Exposure multiples to CD69 IC50 (total, Cmin): whole-blood CD69 IC50 = 142 nM
Excerpt: The extent and severity of findings is consistent with increased inhibition of PI3Kδ (delta) at exposure multiples over CD69 IC50 for the comparator compounds.

[4] = test system: MCF7 cells (PI3Kα mutant E545K); test: Cell viability / antiproliferative assay in MCF7 cells (Example 903); assay type: cell-based; conditions: Homo sapiens, MCF7, 96 h, read-out: MCF7 antiproliferative EC50
Experimental: (§1) Cells were seeded (1,500 per well) in 384-well plates for 16 h. On day 2, nine serial 1:3 compound dilutions were made in DMSO in a 96-well plate. The compounds were then further diluted into growth media using a Rapidplate robot (Zymark Corp.). […] After 4 d, relative numbers of viable cells were measured by luminescence using Cell Titer-Glo (Promega) according to the manufacturer's instructions and read on a Wallac Multilabel Reader (Perkin-Elmer). EC50 values were calculated using Prism 6.0 software (GraphPad).

[5] = Unbound fraction in mouse plasma (Fu); assay type: in vitro ADME; conditions: read-out: Fu mouse (unbound fraction in species plasma)
[6] = test system: HCC1954 (PI3Kα mutant H1047R), p-PRAS40; test: p-PRAS40 MSD assay in HCC1954 cells (Example 907); conditions: Homo sapiens, HCC1954, 24 h, read-out: P-PRAS40 HCC1954 MSD EC50
Experimental: The following day, cells are treated with compounds and incubated for 24 hours. […] The HCC1954 cell line expresses mutant PI3Kα (E545K) vs WT in HDQP1.
The MSD platform provides a method of measuring the phosphorylated levels of pPRAS40 in a single sample. […] Following cell lysis, PRAS40 in samples is allowed to bind to the capture antibodies.
Procedure: • Compounds prepared at concentration of 2 mM in DMSO.
Day 1: Cell Plating • 1. Seed 12.500 cells in 45 ul medium for each cell line. Allow cells to settle/attach to plate for 15-20 min at room temperature. • 2. Incubate cells overnight in a 37° C. humidity and CO2 controlled incubator.
Day 2: Compound Plate Preparation and Compound Treatment • 1. For the 10× intermediate dilution plate: add 95 ul serum-free media into a standard profile greiner 384 well polypropylene plate. • 2. Use biomek Fx protocol for intermediate compound dilution in media and addition to cells: “SLS Intermed Dil Add 5 ul to Cells Jul. […] The method then transfers 5 ul from the intermediate dilution plate to the appropriate cell plate. • 3. Incubate the treated cells at 37 degrees for 24 hours in a 5% CO2 humidified incubator.
Block the MSD assay plate with 50 ul 3% Blocker A/1×MSD Wash Buffer 1-2 hr at room temp. […] Blocking buffer A contains 1×MSD wash buffer. 20 mL 1× Tris Wash buffer and 600 mg Blocker A.
Aspirate Media and Lyse the Cells • 1. Lyse the cells in 50 μl lysis buffer. Lyse at room temperature for 10-20 minutes on plate shaker. • 2. While cells are lysing, wash blocked plates 1×MSD wash buffer. • 3. Transfer 42 ul lysates (21+21 μL) to a blocked MSD pPRAS40 assay plate. • 4. Seal MSD plates and incubate at 4° C. with shaking overnight.
Day 4: MSD Assay/Detection • 8. Make a solution of 1% Blocker A in 1×MSD wash buffer. (20 mL 1× Tris Wash buffer and 200 mg Blocker A (1% w/v). This solution can be stored at 4° C. for up to one month. • 9. Wash the MSD plates with 1×MSD wash buffer. • 10. Add 10 μl of the diluted SULFO-TAG detection antibody to the plates. Incubate for 1 hr with shaking at room temp.
Wash the plates 4× with 1×MSD wash buffer. • 12. Add 35 μl 1× Read buffer with reverse pipetting to avoid bubbles. • 13. Read the plate immediately on the MSD SECTOR instrument.

[7] = test system: HDQ-P1 (PI3Kα wild-type), p-PRAS40; test: p-PRAS40 MSD assay in HDQ-P1 cells (Example 907); conditions: Homo sapiens, HDQ-P1, 24 h, read-out: P-PRAS40 HDQ-P1 MSD EC50
[8] = Unbound fraction in dog plasma (Fu); assay type: in vitro ADME; conditions: read-out: Fu dog (unbound fraction in species plasma)
[9] = test system: SW48 (H1047R) PI3Kα mutant cells, P-PRAS40; test: Inhibition of P-PRAS40 in SW48 isogenic cells, kinase domain mutant H1047R (Example 902); conditions: Homo sapiens, SW48, 24 h, read-out: P-PRAS40 SW48 (H1047R) EC50
[10] = test system: HCC1954 cells (PI3Kα mutant H1047R); test: Cell viability / antiproliferative assay in HCC1954 cells (Example 903); conditions: Homo sapiens, HCC1954, 96 h, read-out: HCC1954 antiproliferative EC50
Experimental: as §1

[11] = test system: CD69 expression in CD19+ CD27− B cells; test: B-cell a-IgM CD69 expression, human whole blood assay (Example 906); assay type: cell-based
Experimental: The expression of CD69 in B-cells resultant from a-IgM treatment is believed to be driven by signaling through PI3Kδ (delta).
Human whole blood was dispensed into 96-deep well plates at 100 μl per well. Compounds were diluted in DMSO to generate the desired stock concentrations and then further diluted in PBS to the desired working concentration and added in a volume of 5.5 μL per well. Samples were then incubated for 1 hour at 37° C. under 5% CO2 before the addition of 5 μg (10 μl per well) of Goat anti IgM F(ab′)2 (Southern Biotech, AL), and incubated for 18 hours at 37° C. under 5% CO2. All treatments were tested in duplicate.
In addition, human whole blood from each donor was stained with isotype-matched fluorescent control antibodies. After the addition of the appropriate antibody cocktail the whole blood samples were stained for 30 minutes in the dark and then lysed using BD Pharm Lysis (BD Bioscience, NJ). The resulting samples were then washed with FACS Buffer (Phosphate Buffered Saline (Ca:Mg++ free), 1 mM EDTA, 25 mM HEPES pH 7.0, 1% Fetal Bovine Serum (Heat-Inactivated) and fixed in FACS Buffer supplemented with 0.1% Formaldehyde (Polysciences Inc, PA) and 0.1% Pluronic F-68 (Sigma, MO). Data were acquired using a BD LSR-II (BD Biosciences) with BD FACSDiva software.
Cells were assessed by flow cytometry for levels of CD19, CD27 and CD69 using BD FACSDiva Software and the CD69 MFI-Mean of the CD19^+ CD27^− lymphocyte population was determined.

Chain of PI3Kα (P42336 whole entry, canonical isoform): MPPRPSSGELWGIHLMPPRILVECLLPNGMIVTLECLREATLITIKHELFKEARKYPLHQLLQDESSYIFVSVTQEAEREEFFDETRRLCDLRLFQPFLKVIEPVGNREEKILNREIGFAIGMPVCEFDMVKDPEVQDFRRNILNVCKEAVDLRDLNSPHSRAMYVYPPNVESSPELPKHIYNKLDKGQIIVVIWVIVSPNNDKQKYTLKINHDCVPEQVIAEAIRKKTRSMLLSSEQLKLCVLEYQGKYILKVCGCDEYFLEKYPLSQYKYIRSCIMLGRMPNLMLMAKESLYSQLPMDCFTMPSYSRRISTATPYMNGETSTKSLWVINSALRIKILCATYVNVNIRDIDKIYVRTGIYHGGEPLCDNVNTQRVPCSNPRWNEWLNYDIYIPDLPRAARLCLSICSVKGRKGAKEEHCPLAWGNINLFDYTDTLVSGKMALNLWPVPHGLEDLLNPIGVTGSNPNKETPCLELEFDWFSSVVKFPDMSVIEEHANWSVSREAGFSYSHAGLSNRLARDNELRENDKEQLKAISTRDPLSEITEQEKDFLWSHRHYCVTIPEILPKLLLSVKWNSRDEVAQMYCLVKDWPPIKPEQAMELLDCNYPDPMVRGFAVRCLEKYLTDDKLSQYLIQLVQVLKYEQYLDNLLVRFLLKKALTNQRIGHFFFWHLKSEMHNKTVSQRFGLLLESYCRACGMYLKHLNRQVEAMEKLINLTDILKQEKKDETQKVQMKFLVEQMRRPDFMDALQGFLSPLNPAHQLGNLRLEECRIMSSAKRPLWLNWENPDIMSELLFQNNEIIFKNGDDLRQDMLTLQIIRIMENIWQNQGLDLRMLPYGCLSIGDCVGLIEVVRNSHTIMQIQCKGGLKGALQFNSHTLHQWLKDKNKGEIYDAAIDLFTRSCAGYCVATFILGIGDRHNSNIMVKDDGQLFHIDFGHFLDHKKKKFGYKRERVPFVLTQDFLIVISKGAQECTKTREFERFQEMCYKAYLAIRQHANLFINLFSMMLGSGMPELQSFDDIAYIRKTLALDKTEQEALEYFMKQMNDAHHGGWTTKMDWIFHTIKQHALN
Chain of PI3Kα (P27986 whole entry partner, canonical isoform): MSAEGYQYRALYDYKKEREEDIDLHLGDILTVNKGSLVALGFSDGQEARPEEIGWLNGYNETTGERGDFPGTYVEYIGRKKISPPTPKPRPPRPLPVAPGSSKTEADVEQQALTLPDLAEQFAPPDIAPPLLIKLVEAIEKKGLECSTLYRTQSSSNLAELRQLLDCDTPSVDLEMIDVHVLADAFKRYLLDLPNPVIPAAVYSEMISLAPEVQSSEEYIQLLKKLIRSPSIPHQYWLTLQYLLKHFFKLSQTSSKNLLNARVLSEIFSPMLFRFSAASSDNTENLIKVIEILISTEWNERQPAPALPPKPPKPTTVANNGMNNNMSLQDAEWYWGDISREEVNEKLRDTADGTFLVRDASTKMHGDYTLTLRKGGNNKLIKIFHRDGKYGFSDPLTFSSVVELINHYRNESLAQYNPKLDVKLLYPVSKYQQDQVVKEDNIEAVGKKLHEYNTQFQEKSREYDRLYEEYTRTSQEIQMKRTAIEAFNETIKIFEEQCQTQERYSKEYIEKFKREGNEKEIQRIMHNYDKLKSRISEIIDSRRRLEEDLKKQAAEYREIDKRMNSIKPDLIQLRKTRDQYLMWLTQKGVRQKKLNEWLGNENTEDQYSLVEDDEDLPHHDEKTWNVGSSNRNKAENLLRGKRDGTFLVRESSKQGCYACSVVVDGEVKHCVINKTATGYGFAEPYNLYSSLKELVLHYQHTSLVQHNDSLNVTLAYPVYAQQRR
Chain of p110α (P42336 whole entry H1047R): as the sequence (P42336 whole entry, canonical isoform) above, with H1047R counted along it
Chain of p110α (P27986 whole entry partner): as the sequence (P27986 whole entry partner, canonical isoform) above

## NC(=O)[C@@H](Nc1ccc2c(c1)OCCn1cc(N3C(=O)OC[C@H]3C(F)F)nc1-2)C1CC1 [Compound 103, (S)-2-Cyclopropyl-2-((2-((S)-4-(difluoromethyl)-2-oxooxazolidin-3-yl)-5,6-dihydrobenzo[f]imidazo[1,2-d][1,4]oxazepin-9-yl)amino)acetamide]
[1]
  EC50: 10.1 nM
p110α
  p110α levels (Western blot): promote reduction of p110α levels selectively in PI3K mutant
PI3Kα
  Ki: 0.06 nM
[2]
  EC50: 4.1 nM
[3]; 0.1 mg/kg/day
  concentration at 14 day: 4.8 nM
  Cmax: 40 nM
  AUC(0-t): 0.27 µM·h
[3]; 0.3 mg/kg/day
  concentration at 14 day: 11 nM
  Cmax: 130 nM
  AUC(0-t): 0.9 µM·h
[3]; 1 mg/kg/day
  concentration at 14 day: 34 nM
  Cmax: 310 nM
  AUC(0-t): 2.54 µM·h
[3]; Compound 103 0.1 mg/kg/day QD
  Cmax D14, free: 0.02 µM
  Exposure AUC0-24 hr, D14, free: 0.14 µM·h
  Exposure multiples (free, AUC): 4.7 ×
  Exposure multiples (total, AUC): 0.2 ×
  Exposure multiples to CD69 IC50 (total, Cmin): 0.03×
[3]; Compound 103 0.3 mg/kg/day QD
  Cmax D14, free: 0.066 µM
  Exposure AUC0-24 hr, D14, free: 0.46 µM·h
  Exposure multiples (free, AUC): 15 ×
  Exposure multiples (total, AUC): 0.8 ×
  Exposure multiples to CD69 IC50 (total, Cmin): 0.08×
[3]; Compound 103 1 mg/kg/day QD
  Cmax D14, free: 0.16 µM
  Exposure AUC0-24 hr, D14, free: 1.29 µM·h
  Exposure multiples (free, AUC): 43 ×
  Exposure multiples (total, AUC): 2.2 ×
  Exposure multiples to CD69 IC50 (total, Cmin): 0.2×
[3]; multiple-day dosing in Beagle dogs (7-14 days), high exposure multiples
  Lymphoid depletion (summary): only minor amounts of lymphoid depletion at high exposure multiples
[3]; multiple-day dosing in Beagle dogs (7-14 days), 101 and 103 at >5-fold free exposure multiples over TGI60
  Pro-inflammatory signature (clinical pathology or anatomic pathology evaluation): do not promote a pro-inflammatory signature
[4]
  EC50: 30 nM
[5]
  fraction unbound: 0.03
[6]
  EC50: 28 nM
[7]
  EC50: 155 nM
[8]
  fraction unbound: 0.507
[9]
  EC50: 3.8 nM
[10]
  EC50: 70 nM
[11]; Homo sapiens, whole-blood, uncorrected, read-out: a-IgM stimulated CD69 expression (whole-blood) IC50
  IC50: 142 nM
[11]; human whole-blood IC50 multiplied by measured human fu, read-out: B-cell a-IgM CD69 expression IC50, plasma-protein-binding corrected
  IC50: 76 nM
